Reference: the supplement of paper PMC10307832

Tests used:
Test in all cases: relative viability (nuclei count vs DMSO), 5 days (fraction); higher = more cells survive
DM3189 + Pictilisib = compound: C1CN(CCN1)C2=CC=C(C=C2)C3=CN4C(=C(C=N4)C5=CC=NC6=CC=CC=C56)N=C3 [DM3189] + CS(=O)(=O)N1CCN(Cc2cc3nc(-c4cccc5[nH]ncc45)nc(N4CCOCC4)c3s2)CC1 [Pictilisib] (partner 1 µM)
Summary of the method: (§1)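 Five library-drug doses in √10 steps were combined with a fixed anchor-drug dose, or a single drug was given alone, by pin tool to lung cancer cell lines in 1536-well plates the day after seeding. Nuclei were stained and counted after 5 days. Relative viability is the nuclei count in treated wells over that in vehicle wells, taken as the median of duplicate plates.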

DM3189 + Palbociclib = compound: C1CN(CCN1)C2=CC=C(C=C2)C3=CN4C(=C(C=N4)C5=CC=NC6=CC=CC=C56)N=C3 [DM3189] + CC(=O)c1c(C)c2cnc(Nc3ccc(N4CCNCC4)cn3)nc2n(C2CCCC2)c1=O [Palbociclib] (partner 0.5 µM)
Summary of the method: as §1

DM3189 + Trametinib = compound: C1CN(CCN1)C2=CC=C(C=C2)C3=CN4C(=C(C=N4)C5=CC=NC6=CC=CC=C56)N=C3 [DM3189] + CC(=O)Nc1cccc(-n2c(=O)n(C3CC3)c(=O)c3c(Nc4ccc(I)cc4F)n(C)c(=O)c(C)c32)c1 [Trametinib] (partner 0.02 µM)
Summary of the method: as §1

DM3189 + Luminespib = compound: C1CN(CCN1)C2=CC=C(C=C2)C3=CN4C(=C(C=N4)C5=CC=NC6=CC=CC=C56)N=C3 [DM3189] + CCNC(=O)c1noc(-c2cc(C(C)C)c(O)cc2O)c1-c1ccc(CN2CCOCC2)cc1 [Luminespib] (partner 0.01 µM)
Summary of the method: as §1

DM3189 + Lapatinib = compound: C1CN(CCN1)C2=CC=C(C=C2)C3=CN4C(=C(C=N4)C5=CC=NC6=CC=CC=C56)N=C3 [DM3189] + CS(=O)(=O)CCNCc1ccc(-c2ccc3ncnc(Nc4ccc(OCc5cccc(F)c5)c(Cl)c4)c3c2)o1 [Lapatinib] (partner 2 µM)
Summary of the method: as §1

Row | Cell Line | relative viability (DM3189 + Pictilisib; first compound 0.08 µM) | relative viability (DM3189 + Pictilisib; first compound 0.253 µM) | relative viability (DM3189 + Pictilisib; first compound 0.8 µM) | relative viability (DM3189 + Pictilisib; first compound 2.53 µM) | relative viability (DM3189 + Palbociclib; first compound 0.08 µM) | relative viability (DM3189 + Palbociclib; first compound 0.253 µM) | relative viability (DM3189 + Palbociclib; first compound 0.8 µM) | relative viability (DM3189 + Palbociclib; first compound 2.53 µM) | relative viability (DM3189 + Trametinib; first compound 0.08 µM) | relative viability (DM3189 + Trametinib; first compound 0.253 µM) | relative viability (DM3189 + Trametinib; first compound 0.8 µM) | relative viability (DM3189 + Trametinib; first compound 2.53 µM) | relative viability (DM3189 + Luminespib; first compound 0.08 µM) | relative viability (DM3189 + Luminespib; first compound 0.253 µM) | relative viability (DM3189 + Luminespib; first compound 0.8 µM) | relative viability (DM3189 + Luminespib; first compound 2.53 µM) | relative viability (DM3189 + Lapatinib; first compound 0.08 µM) | relative viability (DM3189 + Lapatinib; first compound 0.253 µM) | relative viability (DM3189 + Lapatinib; first compound 0.8 µM) | relative viability (DM3189 + Lapatinib; first compound 2.53 µM)
1 | NCI-H460 | 0.387 | 0.464 | 0.223 | 0.43 | 0.305 | 0.187 | 0.158 | 0.16 | 0.341 | 0.242 | 0.154 | 0.241 | 0.0319 | 0.0329 | 0.0354 | 0.0318 | 1.45 | 1.03 | 0.825 | 0.235
2 | NCI-H520 | 0.28 | 0.234 | 0.219 | 0.19 | 0.206 | 0.202 | 0.206 | 0.173 | 0.672 | 0.413 | 0.43 | 0.321 | 0.238 | 0.228 | 0.214 | 0.214 | 0.902 | 0.679 | 0.644 | 0.42
3 | NCI-H647 | 0.381 | 0.334 |  | 0.381 | 0.4 | 0.378 | 0.273 | 0.217 | 0.488 | 0.399 | 0.378 | 0.412 | 0.122 | 0.146 | 0.115 | 0.136 | 1.36 | 0.823 | 0.622 | 0.463
4 | NCI-H650 | 0.976 | 0.888 | 0.741 | 0.845 | 0.321 | 0.311 | 0.304 | 0.369 | 0.988 | 0.826 | 0.749 | 0.877 | 0.761 | 0.729 | 0.701 | 0.767 | 0.992 | 0.593 | 0.765 | 0.521
5 | NCI-H661 | 0.44 | 0.453 | 0.509 | 0.389 | 0.411 | 0.394 | 0.396 | 0.381 | 0.7 | 0.581 | 0.642 | 0.623 | 1.07 | 0.922 | 0.959 | 0.78 | 0.564 | 0.579 | 0.53 | 0.614
6 | NCI-H727 | 0.593 | 0.347 |  | 0.227 | 0.581 | 0.581 | 0.579 | 0.608 | 0.416 | 0.433 | 0.445 | 0.47 | 0.402 | 0.377 |  | 0.31 | 0.829 | 0.626 |  | 0.781
7 | NCI-H838 | 0.521 | 0.35 | 0.317 | 0.397 | 0.265 | 0.224 | 0.174 | 0.205 | 0.57 | 0.454 | 0.388 | 0.496 | 0.309 | 0.322 | 0.242 | 0.246 | 1.1 | 0.867 | 0.65 | 0.897
8 | NCI-H1355 | 0.539 | 0.399 | 0.311 | 0.362 | 0.357 | 0.416 | 0.349 | 0.387 | 0.408 | 0.429 | 0.33 | 0.421 | 0.621 | 0.674 | 0.626 | 0.602 | 1.07 | 0.972 | 0.819 | 0.919
